# Measured values reported in patent US12115208B2, “Small-molecule adjuvants for antibiotics to address antibiotic resistance” (HIGH POINT UNIVERSITY, priority 2017, dated 2024).
# How the values were obtained:
# S. aureus USA100 (MRSA) [1] = experiment: microbe, parasite or virus in culture; assay type: cell-based, Staphylococcus aureus; conditions: Staphylococcus aureus, compound alone, CAMHB, 18 h
# S. epidermidis 49461 = experiment: Antibiotic repotentiation (oxacillin MIC with/without compound); assay type: cell-based, Staphylococcus epidermidis; conditions: +50 μM compound, S. epidermidis 49461
# Experimental: (§1) The overnight culture was diluted into fresh CAMHB to a concentration of 5×10^5 CFU/ml. […] On the same plate, a standard microdilution MIC with the tested antibiotics and no added compound was also performed to compare the antibiotic MIC in the presence and absence of compound. […] Fold reductions were calculated by dividing the MIC of the antibiotic without compound by the MIC of the antibiotic in the presence of compound.
# Antibiotic potentiation in S. epidermidis was also investigated.
# S. aureus 29213 biofilm = experiment: Biofilm inhibition, crystal violet assay; assay type: cell-based; conditions: Staphylococcus aureus, 30 h
# Experimental: (§2) A standard static crystal violet assay was used to quantify biofilm inhibition.^45 Cultures of S. aureus or S. epidermidis were grown overnight in TSBG (tryptic soy broth with 5% glucose) at 37° C. with shaking. These cultures were used to inoculate fresh TSBG to a calculated optical density of 0.01 at 600 nm (OD600). […] Untreated aliquots were used as a positive control and water served as a negative control. 100 μl of these suspensions were added to the wells of a 96-well polyvinylchloride microtiter plate. […] After incubation, media was discarded and the plates were washed with water to remove non-adherent cells. Adherent biofilms were stained with 110 μl of crystal violet (0.1% in water) and incubated at room temperature for thirty minutes. The crystal violet staining solution was discarded and plates were washed with water to remove excess stain. The resulting stained biofilms were solubilized with 200 μL of 95% ethanol for 10 minutes. 125 μl of the ethanol solutions were transferred to a clear polystyrene microtiter plate for evaluation. Absorbance at 540 nm was recorded using a BioTek Synergy H1 microplate reader. The absorbance of the negative control lanes was subtracted from the experimental values to account for background staining. Percent inhibition was calculated by comparison of the absorbance values of control versus treated wells under identical conditions.
# (§3) Antibiotic resistance and biofilm formation share similar regulatory mechanisms. […] Biofilm inhibition was first assessed in S. aureus 43300, a methicillin-resistant strain (see Table 18). As described in Materials and Methods, a standard crystal violet assay was used to assess biofilm inhibition by the tested compounds. The IC50 is described as the compound concentration required to inhibit 50% of biofilm formation. The standard deviation is calculated from at least 3 independent experiments.
# (§4) The biofilm inhibition activity of loratadine was further explored in other strains of S. aureus. Loratadine was capable of inhibiting biofilm formation in all tested strains of S. aureus, including methicillin-resistant and vancomycin-resistant strains.
# S. aureus USA300 biofilm = experiment: Biofilm inhibition, crystal violet assay; assay type: cell-based; conditions: Staphylococcus aureus, S. aureus USA300 (MRSA), 30 h
# Experimental: as §2, §3, §4
# [2] = system: S. aureus NR-50109 biofilm; experiment: Biofilm inhibition, crystal violet assay; assay type: cell-based; conditions: Staphylococcus aureus, NR50109BIOFILM, S. aureus NR-50109 (methicillin and vancomycin resistant), 30 h
# Experimental: as §2, §3, §4
# S. aureus USA100 biofilm = experiment: Biofilm inhibition, crystal violet assay; assay type: cell-based; conditions: Staphylococcus aureus, S. aureus USA100 (MRSA), 30 h
# Experimental: as §2, §3, §4
# [3] = system: S. aureus NR-49120 biofilm; experiment: Biofilm inhibition, crystal violet assay; assay type: cell-based; conditions: Staphylococcus aureus, NR49120BIOFILM, S. aureus NR-49120 (methicillin and vancomycin resistant), 30 h
# Experimental: as §2, §3, §4
# [4] = system: S. epidermidis ATCC 49461 biofilm; experiment: Biofilm inhibition, crystal violet assay; assay type: cell-based, Staphylococcus epidermidis; conditions: Staphylococcus epidermidis, ATCC49461, 30 h, read-out: Inhibition of biofilm formation IC50
# Experimental: as §2
# S. aureus USA300 (MRSA) = experiment: Minimum inhibitory concentration, broth microdilution; assay type: cell-based, Staphylococcus aureus; conditions: Staphylococcus aureus; compound alone; S. aureus USA300 (MRSA); CAMHB, 18 h; read-out: MIC
# Experimental: (§5) The compounds were then analyzed for antibiotic repotentiation activity. […] The tested strains included USA300, which is a common and particularly virulent strain of community-acquired MRSA.
# [5] = system: S. aureus ATCC 43300 (MRSA); experiment: as above; assay type: cell-based, Staphylococcus aureus; conditions: Staphylococcus aureus; compound alone; S. aureus ATCC 43300 (MRSA); CAMHB, 18 h; read-out: MIC
# Experimental: as §5
# S. aureus ATCC 29213 = experiment: as above; assay type: cell-based; conditions: Staphylococcus aureus, ATCC29213; compound alone; S. aureus ATCC 29213; CAMHB, 18 h; read-out: MIC
# Experimental: as §5
# [6] = system: S. aureus NR-49120 (VRSA); experiment: microbe, parasite or virus in culture; conditions: Staphylococcus aureus, 18 h
# Experimental: Minimum inhibitory concentrations were determined using a standard serial broth microdilution method. […] Mid-log-phase cultures were diluted to a concentration of approximately 5×10^5 CFU/ml in cation-adjusted Mueller-Hinton broth (CAMHB). Wells 2-11 of a 96-well polyvinylchloride microtiter plate were inoculated with 100 μl of bacterial suspension. 100 μl of uninnoculated CAMHB was added to well 12 to serve as a negative control. The top wells were inoculated with 200 μl of bacterial suspension with either antibiotics or compounds added. Serial dilutions were performed in wells 2-10, leaving well 11 to serve as the positive control. The microtiter plates were covered with Press-n-Seal and incubated at 37° C. for 18 hours without agitation. Plates were scored by visual detection of well turbidity.
# [7] = system: various S. aureus strains; experiment: microbe, parasite or virus in culture; conditions: Staphylococcus aureus, read-out: MICs
# MRSA 43300 biofilm = experiment: Biofilm inhibition, crystal violet assay; assay type: cell-based, Staphylococcus aureus; conditions: 30 h
# Experimental: as §2, §3
# [8] = system: S. aureus NR-49120 (VRSA); experiment: Antibiotic repotentiation (antibiotic MIC with/without compound); assay type: cell-based, Staphylococcus aureus; conditions: +50 μM compound, S. aureus NR-49120 (VRSA)
# Experimental: as §1
# S. aureus USA100 (MRSA) [9] = experiment: as above; assay type: cell-based, Staphylococcus aureus; conditions: +50 μM compound, S. aureus USA100 (MRSA)
# Experimental: as §1
smiles,measurement,setting,value
"CCOC(=O)N1CCC(=C2c3ccc(Cl)cc3CCc3cccnc32)CC1 [Loratadine, ethyl 4-(8-chloro-5,6-dihydrobenzo[1,2]cyclohepta[2,4-b]pyridin-11-ylidene)piperidine-1-carboxylate]",MIC,S. aureus USA100 (MRSA) [1],> 200 µM
same,Oxacillin MIC,S. epidermidis 49461,16 µg/mL
same,Fold Reduction,S. epidermidis 49461; oxacillin MIC,1
same,IC50,S. aureus 29213 biofilm,25.9 ± 2.36 µM
same,IC50,S. aureus USA300 biofilm,32.8 ± 5.9 µM
same,IC50,[2],19.1 ± 2.87 µM
same,IC50,S. aureus USA100 biofilm,22.2 ± 6.51 µM
same,IC50,[3],59.9 ± 1.29 µM
same,IC50,[4],25.1 ± 3.65 µM
same,MIC,S. aureus USA300 (MRSA),> 200 µM
same,MIC,[5],> 200 µM
same,MIC,S. aureus ATCC 29213,> 200 µM
same,MIC,[6],> 200 µM
same,MIC,[7],> 200 µM
same,IC50,MRSA 43300 biofilm,11.5 µM
same,IC50,"MRSA 43300 biofilm; Staphylococcus aureus, MRSA",11.4 µM
same,Oxacillin MIC,[8],16 µg/mL
same,Fold Reduction,[8]; oxacillin MIC,8
same,Oxacillin MIC,S. aureus USA100 (MRSA) [9],0.5 µg/mL
same,Fold Reduction,S. aureus USA100 (MRSA) [9]; oxacillin MIC,512
